In patent US20190008961A1, “COMPOUNDS AND METHODS FOR INCREASING TUMOR INFILTRATION BY IMMUNE CELLS” (THE BROAD INSTITUTE, INC., priority 2016, published 2019):
Each block holds one compound with its values, some of them ahead of it.

Legend:
[1] = system: MSC cells; test: RSL3 toxicity in the presence of inhibitors of arachidonic acid metabolic enzymes; format: cell-based; details: for RSL3 mediated cell death in MSCs with soluble epoxide hydrolase inhibitors: FIG. 14, TPPU 20 and 80 μM, AUDA and butyl-AUDA 80 μM; for effect on toxicity of RSL3: increasing amounts of RSL3, FIG. 13
Source text: To investigate the role of RSL3's effects on MSC toxicity, MDA-MSC co-cultures were contacted by compounds that were known inhibitors of arachidonic acid metabolic enzymes.

[2] = system: MSCs and WI-38 fibroblasts; test: viability, Cell Titer Glo, 72 hours; format: cell-based, human
Experimental: Viability measurements were made to determine whether RSL3 is toxic to MDA cells, MSCs or both. Viability was assessed by seeding cells into 384-well opaque-bottom plates (Corning, Corning N.Y. catalog #3570) then treating them 24 hours later with varying concentrations of RSL3 (added using the pin-transfer instrument CyBi-Well Vario, Cybio, Woburn Mass.) for an additional period of 72 hours. Viable cells remaining after the treatment were quantified using the Cell Titer Glo reagent (Promega, Madison Wis. catalog #G7570) that measures cellular ATP content.

[3] = plasma stability, mouse; format: in vitro ADME
Experimental: (§1) Plasma Stability. Plasma stability was determined at 37° C. at 5 hours in both human and mouse plasma. Each compound was prepared in duplicate at 5 μM in plasma diluted 50/50 (v/v) with PBS pH 7.4 (0.95% acetonitrile, 0.05% DMSO). Compounds were incubated at 37° C. for 5 hours with a 350-rpm orbital shake with time points taken at 0 hours and 5 hours. Samples were analyzed by UPLC-MS (Waters, Milford, Mass.) with compounds detected by SIR detection on a single quadrupole mass spectrometer.

[4] = microsomal stability, mouse; format: in vitro ADME
Experimental: (§2) Microsomal Stability. Microsomal stability was determined at 37° C. at 60 minutes in both human and mouse microsomes. Each compound was prepared in duplicate at 1 μM with 0.3 mg/mL microsomes in PBS pH 7.4 (1% DMSO). Compounds were incubated at 37° C. for 60 minutes with a 350-rpm orbital shake with time points taken at 0 minutes and 60 minutes. Samples were analyzed by UPLC-MS (Waters, Milford, Mass.) with compounds detected by SIR detection on a single quadrupole mass spectrometer.

[5] = plasma stability, human; format: in vitro ADME
Experimental: as §1

[6] = plasma protein binding by equilibrium dialysis, human; format: in vitro ADME; details: 5 μM
Experimental: Plasma Protein Binding. Plasma protein binding was determined by equilibrium dialysis using the Rapid Equilibrium Dialysis (RED) device (Pierce Biotechnology, Rockford, Ill.) for both human and mouse plasma. Each compound was prepared in duplicate at 5μM in plasma (0.95% acetonitrile, 0.05% DMSO) and added to one side of the membrane (200 μL) with PBS pH 7.4 added to the other side (350 μL). Compounds were incubated at 37° C. for 5 hours with a 350-rpm orbital shake. After incubation, samples were analyzed by UPLC-MS (Waters, Milford, Mass.) with compounds detected by SIR detection on a single quadrupole mass spectrometer.

[7] = microsomal stability, human; format: in vitro ADME
Experimental: as §2

[8] = system: MSC-shGPX cells; test: Zileuton rescue of viability in GPX4 knockdown MSCs; format: cell-based; details: increasing Zileuton
Experimental: In a knockdown GPX4 experiment in MSCs, increasing amounts of Zileuton were added to MSC-shLacZ cells as a control and to MSC-shGPX cells growing in 384-well plates and their viability was measured after 5 days of growth (see FIG. 15).

Structure (SMILES): O=C(O)CCCCCCCCCCCNC(=O)NC12CC3CC(CC(C3)C1)C2 [AUDA]
RSL3 mediated cell death in MSCs with soluble epoxide hydrolase inhibitors [1]: increase in RSL3 mediated cell death

Structure (SMILES): COc1ccc2c(c1)c(CC(=O)O)c(C)n2C(=O)c1ccc(Cl)cc1 [Indomethacin]
effect on toxicity of RSL3 [1]: little impact

Structure (SMILES): CC(C)c1ccc2c(c1)c(SC(C)(C)C)c(CC(C)(C)C(=O)O)n2Cc1ccc(Cl)cc1 [MK886]
effect on toxicity of RSL3 [1]: lessened the toxicity of RSL3

Structure (SMILES): COc1ccc(N(C(=O)CCl)C(C(=O)NCCc2ccccc2)c2cccs2)cc1Cl (stereo not shown) [ML162]
stromal cell death, potency relative to RSL3 [2]: lower potencies than that of RSL3

Structure (SMILES): c1ccc2c(c1)SCc1c-2[nH]c2ccccc12 [PD146176]
effect on toxicity of RSL3 [1]: lessened the toxicity of RSL3

Plasma Stability (5 h) ([3]; Mouse, 37° C., 5 μM): <1%
stability in murine plasma, in words ([3]; murine): little stability
Liver Microsome Stability (1 h) ([4]; Mouse, 1 μM, 0.3 mg/mL microsomes): <1%
stability in murine liver microsomal assay, in words ([4]; murine): little stability
Plasma Stability (5 h) ([5]; Human, 37° C., 5 μM): 47%
stability in human plasma, in words ([5]; human): modest stability
Plasma Binding Protein (5 h) [6]: 98.2%
Liver Microsome Stability (1 h) ([7]; Human, 1 μM, 0.3 mg/mL microsomes): 32.7%
stability in human liver microsomal assay, in words ([7]; human): modest stability
Structure (SMILES): COC(=O)c1ccc([C@@H]2c3[nH]c4ccccc4c3C[C@@H](C(=O)OC)N2C(=O)CCl)cc1 [RSL3]
potency in inhibiting viability of stromal cells compared with MDA cancer cells or HUVEC endothelial cells ([2]; 72 hours treatment): > 10 fold

Structure (SMILES): CCC(=O)N1CCC(NC(=O)Nc2ccc(OC(F)(F)F)cc2)CC1 [TPPU]
RSL3 mediated cell death in MSCs with soluble epoxide hydrolase inhibitors [1]: increase in RSL3 mediated cell death
effect on toxicity of RSL3 [1]: enhanced RSL3 effects

Structure (SMILES): CC(c1cc2ccccc2s1)N(O)C(N)=O (stereo not shown) [Zileuton]
rescue of stromal cells from death by GPX4 inhibition [1]: rescued
effect on toxicity of RSL3 [1]: lessened the toxicity of RSL3
amount of MSC-shGPX cells that survived ([8]; 5 days of growth): increased with higher amounts of Zileuton
viability of control MSC-shLacZ cells ([8]; FIG. 15): no effect

Structure (SMILES): CCCCS(=N)(=O)CCC(N)C(=O)O (stereo not shown) [buthionine sulfoximine, S-n-butyl homocysteine sulfoximine]
stromal cell death, potency relative to RSL3 [2]: lower potencies than that of RSL3

Structure (SMILES): CCCCOC(=O)CCCCCCCCCCCNC(=O)NC12C[C@H]3C[C@@H](C1)C[C@@H](C2)C3 [butyl-AUDA]
RSL3 mediated cell death in MSCs with soluble epoxide hydrolase inhibitors [1]: increase in RSL3 mediated cell death

Structure (SMILES): COc1cccc2c1C(=O)c1c(O)c3c(c(O)c1C2=O)C[C@@](O)(C(=O)CO)C[C@@H]3O[C@H]1C[C@H](N)[C@H](O)[C@H](C)O1 [doxorubicin]
sensitivity of MSCs and fibroblasts to the drug ([2]; viability, FIG. 4B): did not show enhanced sensitivity

Structure (SMILES): CCOC(=O)c1ccc(NC2CCCCC2)c(N)c1 [ferrostatin]
rescue of stromal cells from death by GPX4 inhibition [1]: rescued
